Data reported in paper PMC8949375, “Design, Green Synthesis and Tailoring of Vitamin E TPGS Augmented Niosomal Nano-Carrier of Pyrazolopyrimidines as Potential Anti-Liver and Breast Cancer Agents with Accentuated Oral Bioavailability” (Pharmaceuticals, 2022).
Like-named read-outs stand apart in the source and are kept apart here.

Assays:
HepG2 cell line = assay: MTT cytotoxicity assay, HepG2; format: cell-based; conditions: Homo sapiens
From the text: (§1) The human HCC cell line, HEPG-2, was obtained from the American Type Culture Collection and used to evaluate the effects of the following drugs. MCF-7(ATCC® HTB-22TM, Manassas, VA, USA) breast cancer cells were derived from mammary gland or breast at a metastatic site. […] The human Caco-2 cell line, Caco-2, was obtained from the American Type Culture Collection and used to evaluate the effects of the following drugs. […], Manassas, VA, USA), epithelial-like lung carcinoma, was derived from lung tissue at a metastatic site. The human A549 cell line, A549, was obtained from the American Type Culture Collection and used to evaluate the effects of the following drugs. […] LLC., Burlington, VT, USA). Penicillin/streptomycin (Gibco®, Grand Island, NY, USA) was applied at 100 units/mL and 100 μg/mL, respectively. Growth inhibition was determined by classic MTT assay. In brief, HEPG2, A549, MCF-7 and Caco-2 cells were added to a cell culture MTT assay plate at a concentration of 5 × 10^3 cells/well in 1640 medium and cultured overnight. The different treatments were added on day 1 according to the calculated doses except on the control well and standard, then incubated for 24 h.

MCF-7 cell line = assay: MTT cytotoxicity assay, MCF-7; format: cell-based; conditions: Homo sapiens, MCF7, read-out: IC50 MCF-7 Breast Cancer
From the text: as §1

CaCo-2 cell line = assay: MTT cytotoxicity assay, CaCo-2; format: cell-based; conditions: Homo sapiens, read-out: IC50 CaCo-2 Colon Cancer
From the text: (§2) • HepG2 [HEPG2] (ATCC® HB-8065™, Manassas, VA, USA) epithelial hepatocellular carcinoma was derived from the liver tissue of a person (a well-differentiated hepatocellular carcinoma). The human HCC cell line, HEPG-2, was obtained from the American Type Culture Collection and used to evaluate the effects of the following drugs. MCF-7(ATCC® HTB-22™, Manassas, VA, USA) breast cancer cells were derived from mammary gland or breast at a metastatic site. The human MCF-7 cell line, MCF-7, was obtained from the American Type Culture Collection and used to evaluate the effects of the following drugs. • Caco 2 [Caco2] (ATCC® HTB 37™, Manassas, VA, USA) epithelial colorectal adenocarcinoma was derived from the colon at a metastatic site. The human Caco-2 cell line, Caco-2, was obtained from the American Type Culture Collection and used to evaluate the effects of the following drugs. A549 (ATCC® CCL-185™, Manassas, VA, USA), epithelial-like lung carcinoma, was derived from lung tissue at a metastatic site. The human A549 cell line, A549, was obtained from the American Type Culture Collection and used to evaluate the effects of the following drugs.
(§3) HEPG2, A549, MCF-7 and Caco-2 cells were maintained in a monolayer culture in a T-25 flask at 5% CO2 and 37 °C in DMEM (Lonza, Verviers, Belgium) and supplemented with 10% (v/v) FBS (Sigma-Aldrich Co. LLC., Burlington, VT, USA). Penicillin/streptomycin (Gibco®, Grand Island, NY, USA) was applied at 100 units/mL and 100 µg/mL, respectively.
(§4) Growth inhibition was determined by classic MTT assay. In brief, HEPG2, A549, MCF-7 and Caco-2 cells were added to a cell culture MTT assay plate at a concentration of 5 × 10^3 cells/well in 1640 medium and cultured overnight. The different treatments were added on day 1 according to the calculated doses except on the control well and standard, then incubated for 24 h. Measurement was achieved using a microplate reader (Model 550, Bio-Rad, Hercules, CA, USA).

A-549 cell line = assay: MTT cytotoxicity assay, A-549; format: cell-based; conditions: Homo sapiens, A549, read-out: IC50 A-549 Lung Carcinoma
From the text: as §2, §3, §4

[1] = tested on: HepG2, MCF-7, A-549 and CaCo-2 cell lines; assay: MTT cytotoxicity assay, summary over all tested cell lines; format: cell-based, human; conditions: for IC50: Homo sapiens, range over compounds and cell lines, read-out: IC50 values versus all tested cell lines (collective range); for cytotoxic effect on the four cancer cell lines: in words
From the text: as §2, §3, §4

[2] = tested on: VEGF protein expression level in HepG2 cell line; assay: VEGF ELISA in HepG2 cell culture supernatant; format: cell-based, human; parameters: concentration or dose not given beside the values; conditions: compared to control
Protocol: (§5) Total protein was assayed using the method described by Bradford. The VEGF ELISA Assay Kit (VEGF) and ELISA Kit, (#VGF31-[…]) were purchased from (Eagle Biosciences CO., LTD, Amherst, NH, USA). The kit is a sandwich enzyme immunoassay for the in vitro quantitative determination of VEGF concentrations in cell culture supernates, serum and plasma according to the manufacturer's instructions.

[3] = tested on: VEGF protein expression level in MCF-7 cell line; assay: VEGF ELISA in MCF-7 cell culture supernatant; format: cell-based, human; parameters: concentration or dose not given beside the values; conditions: MCF-7, ELISA, compared to control
Protocol: as §5

[4] = tested on: VEGFR-2 protein expression level in HepG2 cell line; assay: Human VEGF receptor-2 ELISA in HepG2; format: cell-based; parameters: concentration or dose not given beside the values; conditions: compared to control
Protocol: (§6) Total protein was assayed using the method described by Bradford. The Human VEGF receptor-2 ELISA Kit (ab213476), (96 tests) was purchased from (abcam®, Waltham, MA, USA). The kit is a sandwich enzyme immunoassay for the in vitro quantitative measurement of human VEGFR-2 in tissue homogenates, cell lysates and other biological fluids according to the manufacturer’s instructions.

[5] = tested on: VEGFR-2 protein expression level in MCF-7 cell line; assay: Human VEGF receptor-2 ELISA in MCF-7; format: cell-based; parameters: concentration or dose not given beside the values; conditions: MCF-7, ELISA, compared to control
Protocol: as §6

[6] = tested on: VEGF gene expression level in HepG2 cell line; assay: Real-time PCR of VEGF gene expression, HepG2; format: cell-based, human; conditions: HepG2, 3 days of treatment, compared to control, in words
Protocol: RT-PCR was applied to evaluate the VEGF gene expression level. Briefly, total RNA was extracted, and the extracted total RNA concentration was determined using a NanoDrop 2000 spectrophotometer (Thermo Fisher, Waltham, MA, USA). To determine the relative expression levels, the 2^−ΔΔCT method was used. NCBI/Primer Blast was used to define the primer sequences. The experiments were performed in quadruplicate. The primer sequences of VEGF and β-actin genes are listed below: […]

[7] = read-out: IC50 HepG2 Livercarcinoma

Compound	melting point [°C]	IC50 (HepG2 cell line; [7]) [µM]	IC50 (MCF-7 cell line) [µM]	VEGF 24 h % Inhibition [2] [%]	VEGF 72 h % Inhibition [2] [%]	VEGF 24 h % Inhibition [3] [%]	VEGF 72 h % Inhibition [3] [%]	VEGFR-2 24 h % Inhibition [4] [%]	VEGFR-2 72 h % Inhibition [4] [%]	VEGFR-2 24 h % Inhibition [5] [%]	VEGFR-2 72 h % Inhibition [5] [%]	cytotoxic effect on the four cancer cell lines [1]	further results
Cc1ccc(N=Nc2c(N)n[nH]c2N)cc1 [Compound 1, 4-(p-tolyldiazenyl)-1H-pyrazole-3,5-diamine]		20	50	23	33.3	20	50	52.6	38.5	33.3	50		IC50 (CaCo-2 cell line): 18.2 µM; IC50 (A-549 cell line): 15.1 µM; IC50 [1]: 6 to 50 µM
Cc1ccc(N=Nc2c(N)nn3c(N)c(N=Nc4ccc(S(=O)(=O)N=C(N)N)cc4)c(O)nc23)cc1 [Compound 2a, 4-((2,7-Diamino-5-hydroxy-3-(4-tolyldiazenyl)pyrazolo[1,5-a]pyrimidin-6-yl)diazenyl)-N-(diaminomethylene)benzenesulfonamide]	268 to 270	6.2	20	38.5	33.3	40	50	47.4	38.5	50	50		IC50 (HepG2 cell line; TPGS-coated vs uncoated niosomes vs pure compound, read-out: IC50 Hepg2 Liver Carcinoma): 6.5 µM; IC50 (CaCo-2 cell line): 12.5 µM; IC50 (A-549 cell line): 10 µM; IC50 [1]: 6 to 50 µM; VEGF gene expression level [6]: great inhibition
Cc1ccc(N=Nc2c(N)nn3c(N)c(N=Nc4cccc([N+](=O)[O-])c4)c(O)nc23)cc1 [Compound 2b, 2,7-diamino-6-((3-nitrophenyl)diazenyl)-3-(4-tolyldiazenyl)pyrazolo[1,5-a]pyrimidin-5-ol]	234 to 236											no cytotoxic effects even at high doses	
Cc1ccc(N=Nc2c(N)nn3c2NC(=O)C(=NNc2ccc(S(=O)(=O)N=C(N)N)cc2)C3=O)cc1 [Compound 5, 4-(2-(2-Amino-5,7-Dioxo-3-(4-Tolyldiazenyl)-4,5-Dihydropyrazolo[1,5-a]Pyrimidin-6(7H)-Ylidene)Hydrazinyl)-N-(Diaminomethylene)Benzenesulfonamide]	278 to 280											no cytotoxic effects even at high doses	
COc1ccc(-c2nc3c(N=Nc4ccc(C)cc4)c(N)nn3c(N)c2C#N)cc1 [Compound 6, 2,7-Diamino-5-(4-Methoxyphenyl)-3-(4-Tolyldiazenyl)Pyrazolo[1,5-a]Pyrimidine-6-Carbonitrile]	230 to 232											no cytotoxic effects even at high doses	
CO[C@H]1C[C@@H]2CC[C@@H](C)[C@@](O)(O2)C(=O)C(=O)N2CCCC[C@H]2C(=O)O[C@H]([C@H](C)C[C@@H]2CC[C@@H](OCCO)[C@H](OC)C2)CC(=O)[C@H](C)/C=C(\C)[C@@H](O)[C@@H](OC)C(=O)[C@H](C)C[C@H](C)/C=C/C=C/C=C/1C [Everolimus, reference compound]			3			50	62.5			40	50		
CNC(=O)c1cc(Oc2ccc(NC(=O)Nc3ccc(Cl)c(C(F)(F)F)c3)c(F)c2)ccn1 [Regorafenib, reference compound]		3		70.8	75.4			62	55.6				
CNC(=O)c1cc(Oc2ccc(NC(=O)Nc3ccc(Cl)c(C(F)(F)F)c3)cc2)ccn1 [Sorafenib, reference compound]		6											

The next lines start with results.

melting point [°C]	Compound	IC50 (HepG2 cell line; [7]) [µM]	IC50 (MCF-7 cell line) [µM]	VEGF 24 h % Inhibition [2] [%]	VEGF 72 h % Inhibition [2] [%]	VEGF 24 h % Inhibition [3] [%]	VEGF 72 h % Inhibition [3] [%]	VEGFR-2 24 h % Inhibition [4] [%]	VEGFR-2 72 h % Inhibition [4] [%]	VEGFR-2 24 h % Inhibition [5] [%]	VEGFR-2 72 h % Inhibition [5] [%]	cytotoxic effect on the four cancer cell lines [1]	further results
250 to 252	Cc1ccc(N=Nc2c(N)nn3c(C)c(N=Nc4ccc(S(=O)(=O)N=C(N)N)cc4)c(C)nc23)cc1 [Compound 3a, 4-((2-Amino-5,7-dimethyl-3-(4-tolyldiazenyl)pyrazolo[1,5-a]pyrimidin-6-yl)diazenyl)-N-(diaminomethylene)benzenesulfonamide]											no cytotoxic effects even at high doses	
256 to 258	Cc1ccc(N=Nc2c(N)nn3c(C)c(N=Nc4cccc([N+](=O)[O-])c4)c(C)nc23)cc1 [Compound 3b, 5,7-Dimethyl-6-((3-nitrophenyl)diazenyl)-3-(4-tolyldiazenyl)pyrazolo[1,5-a]pyrimidin-2-amine]											no cytotoxic effects even at high doses	
272 to 274	Cc1ccc(N=Nc2c(N)nn3c(C)c(N=Nc4ccc(S(=O)(=O)N=C(N)N)cc4)c(=O)[nH]c23)cc1 [Compound 4a, 4-((2-Amino-7-methyl-5-oxo-3-(4-tolyldiazenyl)-4,5-dihydropyrazolo[1,5-a]pyrimidin-6-yl)diazenyl)-N-(diaminomethylene)benzenesulfonamide]											no cytotoxic effects even at high doses	
228 to 230	Cc1ccc(N=Nc2c(N)nn3c(C)c(N=Nc4cccc([N+](=O)[O-])c4)c(=O)[nH]c23)cc1 [Compound 4b, 2-Amino-7-methyl-6-((3-nitrophenyl)diazenyl)-3-(4-tolyldiazenyl)pyrazolo[1,5-a]pyrimidin-5(4H)-one]	12.5	25	46	41.7	40	50	42	38.5	50	50		IC50 (CaCo-2 cell line): 15.4 µM; IC50 (A-549 cell line): 14 µM; IC50 [1]: 6 to 50 µM; VEGF gene expression level [6]: great inhibition
